These results are taken from US4042695A, “Thiaxanthene derivatives, compositions thereof and methods of treating therewith” (priority 1972, dated 1977).

Counter-ions that a name gives are not always drawn. Like-named read-outs stand apart in the source and are kept apart here.

In general, ED50 refers to the dose that gives a 50% effect, or the effect in half of the subjects.

Data set [1] can be described thus: Catalepsy-inducing effect in rats. The format is in vivo, male Wistar rats. Conditions: rat, in vivo, sc. As for the experimental part: (§1) Reference is made to L. Juluo: "On the Interaction between Neuroleptics and Antiparkinson Drugs." Modern Problems of Pharmacopsychiatry, vol. 5, pg, 50-54. The test may be described as follows:
(§2) Five animals are used at each dose level.
(§3) The test compound is injected subcutaneously (s.c.)
(§4) Injection volume is 5 ml of the vehicle/kg b.w.
(§5) Except when otherwise stated saline is used as vehicle.
(§6) The animals are placed in the middle of a vertical wire netting (50 cm/49 cm) 60, 120, 180, 240, 300 and 360 minutes after injection of the test compound.
(§7) The animals are considered cataleptic when they remain immobile during a period of 15 seconds. This cataleptic reaction is designated: + (plus). Untreated animals climb normally up and down the wire netting. The absence of catalepsy is designated: - (minus). The results are expressed as fractions as follows: 0/5, 1/5, 2/5, 3/5, 4/5 and 5/5 in which 0, 1, 2, 3,4 and 5 represent the number of cataleptic animals out of five animals tested.

Another data set relates to NMRI male mice. As to the kind of experiment: Methylphenidate antagonism in mice. It counts as in vivo. Conditions: for ED50: Mus musculus, ip. As to the method:
1. As animals were used NMRI male mice weighing 18-25 grams.
3 × 2 or 5 × 2 mice are used for each dose level. Thirty minutes, 1 hour, 2 hours, 3 hours etc. after i.p. injection of test substance, methylphenidate, 60 mg/kg, is injected s.c. At each time interval separate groups of mice were used. After administration of methylphenidate the mice are placed in the observation cages, 2 in each cage, where they remain for 1 hour. The cages are placed on corrugated paper, the corrugations facing upwards. It is examined whether or not the mice have been biting the corrugated paper. […] The peak effect was determined for the test substances and also for a number of known neuroleptics.

The test system of data set [2] is adult purebred Beagle dogs. As to the kind of experiment: Apomorphine antagonism in dogs. The format is in vivo. The text has this:
Especially when testing esters of the compounds of Formula I it has been found advantageous to use the wellrecognized test which is based upon the fact that strong neuroleptics antagonize apomorphine induced vomiting in dogs. The test is described by P. A. J. Janssen, C. J. E. Niemegeers and K. H. L. Schellehaus: "Is it possible to predict the clinical effects of neuroleptic drugs (major tranquillizers) from animal data" ?, Part II, Arzneimittel Forschung, 15, 1196-1206, 1965. In order to evaluate esters of the compounds of Formula I a modified method is described by M. Nymark et al. in Acta pharmacol. et toxicol. 1973, 33, 363-376. The test may be described shortly as follows:
As animals were used adult purebred Beagle dogs of either sex. The threshold-dose of apomorphine hydrochloride for the induction of vomiting in the dogs has been determined to be 0.025 mg/kg intravenously. After this dose vomiting occurs within a few minutes of the injection. Four dogs were used for each dose level of the drug, which was injected subcutaneously at the back of the neck. At different times after the drug administration the dogs were then challenged with apomorphine according to an "up-and-down" schedule using the dose-range 0.025- 0.400 mg/kg intravenously geometrically spaced. […] In this way it was possible to estimate at which level of apomorphine the dogs were protected at a given time. The dogs were fed half an hour before testing to ensure an easy vomiting.

A further data set deals with male Wistar rats. As to the kind of experiment: Catalepsy-inducing effect in rats. It counts as in vivo. Conditions: catalepsy (rats) / methylphenidate antagonism peak effect (mice). As for the experimental part: as §1, §2, §3, §4, §5, §6, §7
Another data set deals with rats. As to the kind of experiment: Antagonism of amphetamine-induced stereotyped behaviour in rats. It counts as in vivo. As for the experimental part:
The modification used by us was as follows:
The animals were then placed in individual cages. […] The absence of stereotypy was interpreted as a drug effect. ED50 values for protection against stereotypy were determined. All compounds were tested at a minimum of three dose levels using 10 rats per dose, and the observer was kept unaware of the identity of the groups until after the experiment.

[3] abbreviates: mice, i.p., 24 h after injection, read-out: Methylphenidate antagonism ED50, 24 h.
[4] abbreviates: mice, i.p., peak effect, methylphenidate 60 mg/kg s.c., read-out: Methylphenidate antagonism, peak effect ED50.
Where [5] appears, read: rats, s.c., dose producing catalepsy in 50% of the animals, read-out: Catalepsy ED50 max.
Where [6] appears, read: read-out: Methylphenidate antagonism, peak effect ED50.

On to `OCCN1CCN(CCCC2c3ccc(F)cc3Sc3ccc(C(F)(F)F)cc32)CC1` (stereo not shown) [Substance 1], for which the values for the ED50 (in data set [1]; with NMRI male mice (setting [3]); in the data set with NMRI male mice (setting [4])) were 0.9 mg/kg, 1.66 mg/kg and 0.04 mg/kg, respectively.
As to `OCCN1CCN(CCC=C2c3ccc(F)cc3Sc3ccc(C(F)(F)F)cc32)CC1` [Substance 6], the ED50 in data set [1] (setting [5]) was 0.12 mg/kg; with NMRI male mice (setting [3]) it was 0.24 mg/kg; in the data set on NMRI male mice (setting [4]), 0.05 mg/kg.
Take `CN1CCc2cccc3c2[C@H]1Cc1ccc(O)c(O)c1-3` [apomorphine hydrochloride, reference compound]: the minimal effective dose in data set [2] (Canis lupus familiaris, iv, intravenously, read-out: threshold-dose for the induction of vomiting) turned out to be 0.025 mg/kg.
As for `OCCN1CCN(CCCC2c3ccc(F)cc3Sc3ccc(Cl)cc32)CC1` (stereo not shown) [Substance 3, 2-chloro-6-fluoro-9-(3-(4-(2-hydroxyethyl)-1-piperazinyl)propyl)-thiaxanthene], in the data set with male Wistar rats, the “Ratio Cat./Meth (catalepsy/methylphenidate antagonism)” value was 3.4. Further, the ED50 in data set [1] (setting [5]) came to 2.7 mg/kg; in the data set with NMRI male mice (setting [3]), 7.1 mg/kg; in the data set with NMRI male mice (setting [4]), 0.8 mg/kg. Also, the “duration of peak effect” value with NMRI male mice (mice, i.p.) was greater than 5 h.
`OCCC1CCN(CCCC2c3ccc(F)cc3Sc3ccc(C(F)(F)F)cc32)CC1` (stereo not shown) [Substance 14, 2-Trifluoromethyl-6-fluoro-9-(3-(4-(2-hydroxyethyl)-1-piperidyl)propyl)-thiaxanthene]: the “Ratio Cat./Meth (catalepsy/methylphenidate antagonism)” value in the data set on male Wistar rats turned out to be 0.8. For the same molecule, the ED50 in data set [1] (setting [5]) is 0.21 mg/kg; with NMRI male mice (setting [3]), 3.6 mg/kg; in the data set with NMRI male mice (setting [4]) it was 0.25 mg/kg.
Turning to `OCCC1CCN(CCC=C2c3ccc(F)cc3Sc3ccc(C(F)(F)F)cc32)CC1` [Substance 13], the ED50 in data set [1] (setting [5]) came out at 0.05 mg/kg; in the data set on NMRI male mice (24 h, read-out: Methylphenidate antagonism ED50, 24 h), 0.03 mg/kg; with NMRI male mice (setting [6]) it was 0.03 mg/kg.
With `CN1CCN(CCCC2c3ccc(F)cc3Sc3ccc(C(F)(F)F)cc32)CC1` (stereo not shown) [Substance 2, 2-trifluoromethyl-6-fluoro-9-(3-(4-methyl-1-piperazinyl)propyl)thiaxanthene], the “Ratio Cat./Meth (catalepsy/methylphenidate antagonism)” value in the data set with male Wistar rats is on record as 10. For the same molecule, the results for the ED50 (in data set [1] (setting [5]); in the data set with NMRI male mice (setting [3]); in the data set with NMRI male mice (setting [4])) were 3.1 mg/kg, greater than 10 mg/kg and 0.3 mg/kg, respectively. In addition, the “duration of peak effect” value in the data set on NMRI male mice (mice, i.p.) is greater than 5 h.
As to `OCCN1CCN(CCCC2c3ccc(C(F)(F)F)cc3Sc3ccc(C(F)(F)F)cc32)CC1` (stereo not shown) [Substance 11, reference compound], the ED50 in data set [1] (setting [5]) was greater than 20 mg/kg; in the data set on NMRI male mice (setting [4]) it was greater than 10 mg/kg.
For the molecule `OCCN1CCN(CCCC2c3ccc(Cl)cc3Sc3ccc(C(F)(F)F)cc32)CC1` (stereo not shown) [Substance 8, reference compound], in the data set with male Wistar rats, the “Ratio Cat./Meth (catalepsy/methylphenidate antagonism)” value is recorded as greater than 5. Moreover, the values for the ED50 (in data set [1] (setting [5]); in the data set with NMRI male mice (setting [4])) were greater than 20 mg/kg and 4 mg/kg, respectively.
Turning to `CCCCCCCCCCCCCCCCCCCCCC(=O)OCCC1CCN(CCC=C2c3ccc(F)cc3Sc3ccc(C(F)(F)F)cc32)CC1` [behenic acid ester of Lu 12-331, behenic acid ester of the alpha-isomer of 2-trifluoromethyl-6-fluoro-9-(3-(4-(2-hydroxyethyl)-1-piperidyl)propylidene)-thiaxanthene], in the data set on rats (5 mg/kg s.c.), the “duration of protection against amphetamine-induced stereotypies” value worked out at 21 days and the sedation result is listed as “hardly any sedation”. Also, the “sedation compared with the palmitic acid ester” value in data set [2] (1 mg/kg subcutaneously as Lu 12-331, first week) is “less sedation in the first week”. Also, in data set [2] (1.6 mg/kg s.c. of ester), the “duration of maximal protection” value turned out to be 15 days and the “time after which the effect had disappeared” value turned out to be 26 days. In addition, the “maximal protection against apomorphine” value in data set [2] (1.6 mg/kg s.c. of ester ~ 1 mg/kg of Lu 12-331) is recorded as 16 × threshold dose of apomorphine. Further, the “protection against apomorphine 21 days after the injection” value in data set [2] (1.6 mg/kg s.c. of ester, 21 days) is ~ 12 × threshold dose. The sedation result in data set [2] (1.6 mg/kg s.c. of ester, at any time) is “No sedation”.
With `OCCC1CCN(CCC=C2c3ccc(F)cc3Sc3ccc(Cl)cc32)CC1` [Substance 15, 2-chloro-6-fluoro-9-(3-(4-(2-hydroxyethyl)piperidin-1-yl)propylidene)thiaxanthene], the “Ratio Cat./Meth (catalepsy/methylphenidate antagonism)” value with male Wistar rats came out at 0.9. In addition, the ED50 in data set [1] (setting [5]) is 0.07 mg/kg; in the data set with NMRI male mice (setting [3]), 0.27 mg/kg; in the data set on NMRI male mice (setting [4]), 0.08 mg/kg.
Take `OCCN1CCN(CCCC2c3cc(C(F)(F)F)ccc3Sc3c2cccc3C(F)(F)F)CC1` (stereo not shown) [Substance 10, reference compound]: the ED50 is greater than 20 mg/kg in data set [1] (setting [5]) and greater than 10 mg/kg with NMRI male mice (setting [4]).
As for `CN1CCN(CCCC2c3ccc(F)cc3Sc3ccc(S(=O)(=O)N(C)C)cc32)CC1` (stereo not shown) [Substance 4, 2-dimethylsulfamoyl-6-fluoro-9-(3-(4-methylpiperazine-1-yl)propyl)-thiaxanthene], the “Ratio Cat./Meth (catalepsy/methylphenidate antagonism)” value in the data set with male Wistar rats is recorded as 3.1. For the same molecule, the values for the ED50 (in data set [1] (setting [5]); in the data set with NMRI male mice (setting [3]); in the data set with NMRI male mice (setting [4])) were 3.1 mg/kg, greater than 5 mg/kg and 1 mg/kg, respectively.
Consider `OCCN1CCN(CCCC2c3cc(C(F)(F)F)ccc3Sc3c(Cl)cccc32)CC1` (stereo not shown) [Substance 9, reference compound], for which the “Ratio Cat./Meth (catalepsy/methylphenidate antagonism)” value with male Wistar rats came to 1.5. Moreover, the results for the ED50 (in data set [1] (setting [5]); in the data set with NMRI male mice (setting [4])) were greater than 20 mg/kg and 14 mg/kg, respectively.
Take `CN1CCN(CCC=C2c3ccc(F)cc3Sc3ccc(S(=O)(=O)N(C)C)cc32)CC1` [Substance 5, 2-dimethylsulfamoyl-6-fluoro-9-(3-(4-methylpiperazine-1-yl)propylidene)-thiaxanthene]: the “Ratio Cat./Meth (catalepsy/methylphenidate antagonism)” value with male Wistar rats came to 2.5. Further, the ED50 in data set [1] (setting [5]) was 1 mg/kg; in the data set on NMRI male mice (setting [3]) it was greater than 10 mg/kg; in the data set with NMRI male mice (setting [4]), 0.4 mg/kg. The “duration of peak effect” value with NMRI male mice (mice, i.p.) was greater than 5 h.
Regarding `CCCCCCCCCC(=O)OCCN1CCN(CC/C=C2/c3ccccc3Sc3ccc(C(F)(F)F)cc32)CC1` [reference compound], in data set [2] (2 mg/kg s.c.), the “day after the injection on which the effect had disappeared” value is 11 days and the “degree of protection against apomorphine” value was determined as 3 × threshold dose.
`CCCCCCCCCCCCCCCC(=O)OCCC1CCN(CCC=C2c3ccc(F)cc3Sc3ccc(C(F)(F)F)cc32)CC1` [palmitic acid ester of Lu 12-331, palmitic acid ester of the alpha-isomer of 2-trifluoromethyl-6-fluoro-9-(3-(4-(2-hydroxyethyl)-1-piperidyl)propylidene)-thiaxanthene]: in the data set with rats (2-5 mg/kg s.c.), the sedation result is reported as “pronounced sedation lasting for several days”.
`CN(C)CCCN1c2ccccc2Sc2ccc(Cl)cc21` [chlorpromazine, reference compound]: in the data set with male Wistar rats, the “Ratio Cat./Meth (catalepsy/methylphenidate antagonism)” value was 1.0. Also, the ED50 (in data set [1]; in the data set with NMRI male mice (setting [6])) was 4 mg/kg each time.
As for `OCCN1CCN(CCC=C2c3ccc(F)cc3Sc3ccc(Cl)cc32)CC1` [Substance 7], the “Ratio Cat./Meth (catalepsy/methylphenidate antagonism)” value in the data set with male Wistar rats worked out at 5. For the same molecule, the ED50 in data set [1] (setting [5]) is 2 mg/kg; in the data set with NMRI male mice (setting [3]), greater than 10 mg/kg; in the data set on NMRI male mice (setting [4]), 0.4 mg/kg. Besides, in the data set with NMRI male mice (mice, i.p.), the “duration of peak effect” value was greater than 5 h.
Take `CN(C)S(=O)(=O)c1ccc2c(c1)C(=CCCN1CCC(CCO)CC1)c1ccc(F)cc1S2` [Substance 12, 2-Dimethylsulfamoyl-6-fluoro-9-(3-(4-(2-hydroxyethyl)-1-piperidyl)propylidene)-thiaxanthene]: the “Ratio Cat./Meth (catalepsy/methylphenidate antagonism)” value in the data set with male Wistar rats turned out to be 0.8. The ED50 was 0.69 mg/kg in data set [1] (setting [5]), greater than 10 mg/kg with NMRI male mice (setting [3]) and 0.87 mg/kg in the data set with NMRI male mice (setting [4]).
